Literature values as cited in paper PMC4486055 (Cancer chemotherapy and pharmacology, 2014).

Conditions: clinical development; cited from earlier work

Question: Which Dose-limiting toxicity does the source give for CN[C@@H]1C[C@H]2O[C@@](C)([C@@H]1OC)n1c3ccccc3c3c4c(c5c6ccccc6n2c5c31)C(=O)N[C@H]4O [UCN-01, 7-hydroxyl-staurosporine] here?
Answer: prominent dose-limiting hyperglycemia
